# How the values were obtained:
# [1] = test system: CCRF-CEM; assay: NCI-60 screening, Leukemia; assay type: cell-based, human
# [2] = test system: NCI-H23; assay: NCI-60 screening, Non-Small Cell Lung Cancer; assay type: cell-based, human
# [3] = test system: NCI-H522; assay: NCI-60 screening, Non-Small Cell Lung Cancer; assay type: cell-based, human
# [4] = test system: KM12; assay: NCI-60 screening, Colon Cancer; assay type: cell-based, human
# [5] = test system: SF-295; assay: NCI-60 screening, CNS Cancer; assay type: cell-based, human
# [6] = test system: SNB-19; assay: NCI-60 screening, CNS Cancer; assay type: cell-based, human
# [7] = test system: LOX IMVI; assay: NCI-60 screening, Melanoma; assay type: cell-based, human
# [8] = test system: MALME-3M; assay: NCI-60 screening, Melanoma; assay type: cell-based, human
# [9] = test system: M14; assay: NCI-60 screening, Melanoma; assay type: cell-based, human
# [10] = test system: NCI/ADR-RES; assay: NCI-60 screening, Ovarian Cancer; assay type: cell-based, human
# [11] = test system: RXF 393; assay: NCI-60 screening, Renal Cancer; assay type: cell-based, human
# [12] = test system: TK-10; assay: NCI-60 screening, Renal Cancer; assay type: cell-based, human
# [13] = test system: MDA-MB-231 ATCC; assay: NCI-60 screening, Breast Cancer; assay type: cell-based, human
# [14] = test system: BT-549; assay: NCI-60 screening, Breast Cancer; assay type: cell-based, human
# [15] = test system: human umbilical vein endothelial cells (HUVEC); assay: Matrigel in vitro HUVECs tube formation assay (angiogenesis); assay type: cell-based; conditions: 1 μM concentration, all measured time points
# Procedure: Matrigel in vitro HUVECs tube formation assay: The tube formation assay was performed using 12-well plate coated with 100 μL Matrigel basement membrane matrix (BD Bioscience) per well and polymerized at 37° C. for 30 min. Human umbilical vascular endothelial cells (HUVECs) suspended in M199 medium containing 2% FBS were plated on the Matrigel at a density of 2×10^5 cells/well. […] After 8 h, the Matrigel-induced morphological changes were photographed and the extent of capillary tube formation was evaluated by measuring the total tube length per field.
# [16] = test system: IGROV1 (Ovarian) Xenograft; assay: Tumor xenograft study, IGROV1; assay type: in vivo, mice
# Procedure: Uniform suspensions of human breast cancer MDA-MB-231 and human ovarian cancer IGROV1 cells (2×10^6) in 100 μL (0.02 carboxymethyl cellulose in phosphate buffered saline) were injected subcutaneously into the right and left flanks of 4- to 5-week-old female athymic nude mice (Charles River Laboratories). After 10 days, when the tumor […] reaches 100 mm^3, the mice were randomly allocated to 3 groups of each containing 6 animals. […] All drug was suspended in PBS followed by sonication (15 seconds with an intermittent interval of 5 seconds) for 1 minute. Tumors were allowed to reach palpability before drug intervention. Tumor size was measured every 3 days using digital Vernier Calipers and tumor volume was calculated using the ellipsoid formula [D×(d2)]/2, where D is the large diameter of the tumor and d represents the small diameter. On day 31, the mice were euthanized and tumors were harvested for protein and gene expression studies. […] FIG. 6B depicts a graph of tumor volume vs. time for the administration of EC300 at 2.5 mg/kg twice weekly in the MDA-MB-231 (TNBC) Xenograft. […] FIG. 7 depicts a graph of tumor volume vs. time for the administration of EC300 at 5 mg/kg 5 days per week in the IGROV1 (Ovarian) Xenograft. […] STAT3 phosphorylation is reduced in tumors that underwent treatment compared to control which is an indication of LIF downstream target.
# [17] = test system: SMAD; assay: Phosphorylation of SMAD; assay type: cell-based; conditions: thorough blocking TGF-beta
structure (smiles),measurement,setting,value
"C#CC(F)(F)[C@]1(O)CCC2C3CCC4=CC(=O)CCC4=C3C(c3ccc(C4CC4)cc3)C[C@@]21C (stereo partly drawn) [EC330, 17α-(1,1-difluoro-2-propyn-1-yl)-17β-hydroxy-11β-[4-p-(cyclopropyl)phenyl]estra-4,9-dien-3-one]",TGI (log10TGI),[1],<−8.00
same,TGI (log10TGI),[2],<−8.00
same,TGI (log10TGI),[3],<−8.00
same,TGI (log10TGI),[4],−5.91
same,TGI (log10TGI),[5],<−8.00
same,TGI (log10TGI),[6],>−4.00
same,TGI (log10TGI),[7],<−8.00
same,TGI (log10TGI),[8],<−8.00
same,TGI (log10TGI),[9],−4.45
same,TGI (log10TGI),[10],−5.41
same,TGI (log10TGI),[11],−5.09
same,TGI (log10TGI),[12],−4.91
same,TGI (log10TGI),[13],−5.46
same,TGI (log10TGI),[14],−5.30
same,tube formation,[15],complete abrogation of tube formation
same,antitumor activity,"[16]; 5 mg/kg (5 days per week), 4 weeks, IGROV1 xenograft",potent antitumor activity
same,apoptosis in xenograft tumors,[16]; IGR-OV1 ovarian cancer xenograft tumors,induced apoptosis dose dependently
same,tumor growth,[16]; ovarian cancer model,significantly reduced
same,STAT3 phosphorylation in tumors,[16]; treated compared to control,reduced
same,phosphorylation of SMAD,[17],indirectly diminish the phosphorylation of SMAD

# From patent publication US20200087340A1, “LIF/LIFR ANTAGONIST IN ONCOLOGY AND NONMALIGNANT DISEASES” (Evestra, Inc., priority 2018, published 2020)
